In patent US8937041B2, “Macrocyclic hepatitis C serine protease inhibitors” (AbbVie, Inc., priority 2010, dated 2015):

How the values were obtained:
[1] = molecular target: recombinant HCV NS3 protease, genotype 1b (Hepatitis C virus genotype 1b, UniProt Q9WMX2); test: biochemical; settings: genotype 1b NS3 protease; read-out: IC50 in a 1b enzyme assay
[2] = system: HCV genotype 1b replicon (1b-Con-1); test: microbe, parasite or virus in culture; format: cell-based; settings: Hepatitis C virus, read-out: EC50 in a replicon cell line assay in a 1b-con1 background
HLM stability = format: in vitro ADME
[3] = molecular target: recombinant HCV NS3 protease, genotype 1a (Hepatitis C virus genotype 1a, UniProt P27958); test: biochemical; settings: genotype 1a NS3 protease; read-out: IC50 in a 1a enzyme assay
Chain of recombinant HCV NS3 protease, genotype 1a (P27958 1027-1657, other chains not shown): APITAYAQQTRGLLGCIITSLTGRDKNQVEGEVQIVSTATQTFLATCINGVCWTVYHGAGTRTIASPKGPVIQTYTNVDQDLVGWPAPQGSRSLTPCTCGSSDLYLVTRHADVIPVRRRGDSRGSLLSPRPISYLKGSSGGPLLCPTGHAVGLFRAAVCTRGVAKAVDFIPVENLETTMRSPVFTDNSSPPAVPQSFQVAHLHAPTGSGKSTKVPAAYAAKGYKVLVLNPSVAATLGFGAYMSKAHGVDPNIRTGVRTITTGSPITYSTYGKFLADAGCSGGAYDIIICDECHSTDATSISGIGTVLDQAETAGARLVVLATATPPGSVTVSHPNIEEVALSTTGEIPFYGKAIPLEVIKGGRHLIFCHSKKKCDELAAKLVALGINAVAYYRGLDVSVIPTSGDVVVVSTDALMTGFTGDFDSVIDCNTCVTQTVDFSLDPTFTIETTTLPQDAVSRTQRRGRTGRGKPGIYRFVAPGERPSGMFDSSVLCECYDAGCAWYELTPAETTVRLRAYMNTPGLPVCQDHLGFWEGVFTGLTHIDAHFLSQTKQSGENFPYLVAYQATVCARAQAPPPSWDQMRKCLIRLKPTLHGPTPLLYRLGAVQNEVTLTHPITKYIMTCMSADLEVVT

[4] = system: HCV genotype 1a replicon (1a-H77); test: microbe, parasite or virus in culture; format: cell-based; settings: Hepatitis C virus, read-out: EC50 in a replicon cell line assay in a 1a-H77 background

Chain of recombinant HCV NS3 protease, genotype 1b (Q9WMX2 1027-1657, other chains not shown): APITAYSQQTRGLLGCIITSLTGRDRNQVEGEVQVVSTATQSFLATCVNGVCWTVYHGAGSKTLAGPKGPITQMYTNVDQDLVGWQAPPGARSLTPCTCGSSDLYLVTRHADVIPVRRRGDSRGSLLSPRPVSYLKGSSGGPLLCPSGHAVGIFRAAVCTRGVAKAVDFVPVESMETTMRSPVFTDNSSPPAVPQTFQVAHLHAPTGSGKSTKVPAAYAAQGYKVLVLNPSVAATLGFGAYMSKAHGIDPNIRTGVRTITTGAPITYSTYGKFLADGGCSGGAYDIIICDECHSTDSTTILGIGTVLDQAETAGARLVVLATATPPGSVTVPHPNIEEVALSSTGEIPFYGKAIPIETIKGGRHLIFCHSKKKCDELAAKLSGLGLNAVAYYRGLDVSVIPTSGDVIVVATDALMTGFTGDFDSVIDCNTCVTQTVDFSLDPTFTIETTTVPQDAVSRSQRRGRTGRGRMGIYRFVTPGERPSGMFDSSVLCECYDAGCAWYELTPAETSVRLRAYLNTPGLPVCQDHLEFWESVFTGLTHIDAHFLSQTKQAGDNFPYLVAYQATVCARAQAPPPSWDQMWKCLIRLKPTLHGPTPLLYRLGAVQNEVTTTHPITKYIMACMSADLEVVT

For `Cc1cc(C(=O)N[C@H]2CCCCCC(F)(F)C[C@@H]3C[C@@]3(C(=O)NS(=O)(=O)C3CC3)NC(=O)[C@@H]3C[C@@H](Oc4nc5ccccc5nc4-c4nc5ccccc5s4)CN3C2=O)no1` [Example 14, N-((2R,6S,13aS,14aR,16aS)-2-(3-(benzo[d]thiazol-2-yl)quinoxalin-2-yloxy)-14a-(cyclopropylsulfonylcarbamoyl)-12,12-difluoro-5,16-dioxooctadecahydrocyclopropa[e]pyrrolo [1,2-a][1,4]diazacyclopentadecin-6-yl)-5-methylisoxazole-3-carboxamide], which IC50 [1] is on record?
Its IC50 is 0.1 to 0.5 nM.

And the EC50 [2]?
The EC50 was 1 to 2 nM.

What about the HLM stability value (HLM stability) of the same molecule?
Its HLM stability value is less than 50 µL/min/mg.

And the IC50 [3]?
The IC50 was 0.1 to 0.5 nM.

And the EC50 [4]?
The EC50 was 2 to 5 nM.

For `CCc1nc2ccccc2nc1O[C@@H]1C[C@H]2C(=O)N[C@]3(C(=O)NS(=O)(=O)C4CC4)C[C@H]3CC(F)(F)CCCCC[C@H](NC(=O)C(C)(C)C)C(=O)N2C1` [Example 12, (2R,6S,13aS,14aR,16a5)-N-(cyclopropylsulfonyl)-2-(3-ethylquinoxalin-2-yloxy)-12,12-difluoro-5,16-dioxo-6-pivalamidooctadecahydrocyclopropa[e]pyrrolo[1,2-a][1,4]diazacyclopentadecine-14a-carboxamide], which IC50 [1] is on record?
The IC50 was 0.5 to 1 nM.

And the EC50 [2]?
Its EC50 is greater than 5 nM.

What about the HLM stability value (HLM stability) of the same molecule?
The HLM stability value was less than 50 µL/min/mg.

And the IC50 [3]?
Its IC50 is 0.5 to 1 nM.

What about the EC50 [4] of the same molecule?
The EC50 was greater than 5 nM.

With `CCc1nc2ccccc2nc1O[C@@H]1C[C@H]2C(=O)N[C@]3(C(=O)NS(=O)(=O)C4(C)CC4)C[C@H]3CC(F)(F)CCCCC[C@H](NC(=O)OC(C)(C)C)C(=O)N2C1` [Example 8, tert-butyl (2R,6S ,13aS,14aR,16aS)-2-(3-ethylquinoxalin-2-yloxy)-12,12-difluoro-14a-(1-methylcyclopropylsulfonylcarbamoyl)-5,16-dioxooctadecahydrocyclopropa[e]pyrrolo[1,2-a][1,4]diazacyclopentadecin-6-ylcarbamate] as the molecule, how does the IC50 [1] read?
Its IC50 is 0.1 to 0.5 nM.

And the EC50 [2]?
The EC50 was 1 to 2 nM.

And the HLM stability value (HLM stability)?
Its HLM stability value is greater than 100 µL/min/mg.

And the IC50 [3]?
The IC50 was 0.1 to 0.5 nM.

And the EC50 [4]?
Its EC50 is 2 to 5 nM.
